Experimental data taken from patent publication US8158779B2, “Antiviral nucleosides” (Medivir AB, priority 2006, dated 2012).

Key:
[1] = tested on: human primary hepatocytes; test: Intracellular triphosphate concentration and half life; type: in vitro ADME; details: 2 μM
Procedure: The putative active species of the compounds of the invention is β-D-2′-deoxy-2′-β-C-methyl-4′-azidocytidine triphosphate. The stability of the triphosphate is determined in fresh human primary hepatocytes (CellzDirect or In Vitro Technologies) pre-incubated with tritiated parent compound. The hepatocytes are cultured on 6 well collagen coated plates (BD Biosciences), typically at 1.5 million cells/well using complete serum-containing medium (CellzDirect or In Vitro Technologies)/37° C./5% CO2. Various hepatocyte strains are available, such as Hu497, MHL-091806 and Hu504 and it is therefore useful to test such strains in parallel and calculate mean values from a range of strains.
The pre-incubation is typically for 24 hours with 2 μM of the tritiated parent at 10 μC/ml. […] The concentration of intracellular triphosphate is quantified at different time points up to 72 hours. […]
At the appropriate timepoint, cells are harvested by aspirating the cell culture medium and washing the cells with cold PBS. […] The parent and intracellular metabolites are identified by comparison of the retention times of the intracellular species in the radiochromatogram with the retention of non-radioactive reference standards spiked in the cell extract samples and detected by UV absorption, typically at 270 nm […]

HCV Pol = target: T1, HCV Pol (Hepatitis C virus genotype 1b, UniProt Q9WMX2); test: Renilla luciferase HCV replicon assay; type: cell-based
T1 construct: expressed in transfected cells

[2] = tested on: Renilla luciferase HCV replicon cells (2209-23)
in vitro = details: human

T1 sequence (Q9WMX2 2420-3010): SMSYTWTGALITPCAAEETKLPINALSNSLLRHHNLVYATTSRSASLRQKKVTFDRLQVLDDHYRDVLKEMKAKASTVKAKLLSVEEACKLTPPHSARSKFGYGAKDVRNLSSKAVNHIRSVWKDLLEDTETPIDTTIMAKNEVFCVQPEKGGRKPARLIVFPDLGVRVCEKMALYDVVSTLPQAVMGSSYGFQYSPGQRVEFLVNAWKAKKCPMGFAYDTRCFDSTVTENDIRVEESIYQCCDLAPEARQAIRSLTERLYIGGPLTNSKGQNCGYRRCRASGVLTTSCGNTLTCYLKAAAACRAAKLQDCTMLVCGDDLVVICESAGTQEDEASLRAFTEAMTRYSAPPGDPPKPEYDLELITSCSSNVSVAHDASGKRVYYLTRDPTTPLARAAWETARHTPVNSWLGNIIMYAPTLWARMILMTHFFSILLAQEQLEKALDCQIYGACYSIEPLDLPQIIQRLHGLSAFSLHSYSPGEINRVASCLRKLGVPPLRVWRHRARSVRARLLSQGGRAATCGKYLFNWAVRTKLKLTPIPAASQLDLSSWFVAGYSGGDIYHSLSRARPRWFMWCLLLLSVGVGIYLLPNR

## C[C@@]1(F)[C@H](O)[C@@H](CO)O[C@H]1n1ccc(N)nc1=O [PSI-6130, β-D-2′-deoxy-2′-fluoro-2′-β-C-methylcytidine]
[1]
  steady state triphosphate level at 24 hours: 1.3 pM/million cells

## CC1C(n2ccc(N)nc2=O)OC(CO)(N=[N+]=[N-])C1O (centres unmarked) [Compound 22, 4-Amino-1-(5-azido-4-hydroxy-5-hydroxymethyl-3-methyl-tetrahydro-furan-2-yl)-1H-pyrimidin-2-one]
HCV Pol
  activity in cell based replicon assay for HCV polymerase activity (in words): good activity
HCV Pol; 100 μM, cell based replicon assay, read-out: Maximum % Inhibition HCV Pol (100 μM)
  inhibition at 100 µM: 98.6%
[2]
  cytotoxicity in the replicon assay (in words): low levels of cytoxicity
In vitro
  cytotoxicity at 100 µM: 9.48%
